Measured values: EP0354694A1, “Therapeutic [1]benzothiopyrano[4,3-c]pyrazoles” (The Boots Company PLC, priority 1988, dated 1990)

System: BALB/c mice
Assay: cutaneous hypersensitivity test (CH test), oxazolone-induced ear swelling
Type: in vivo
Conditions: Mus musculus, ip, 192 h; female BALB/c mice, intraperitoneal, daily from sensitisation for 8 days; lowest dose used with 20% or greater significant (p <0.05) reduction in ear swelling in two out of three CH tests; read-out: Minimum Effective Dose
Protocol: This test was carried out in the following way.
Female BALB/c mice, weight range 16-24 g, were used in groups of eight. The abdomen of each mouse was shaved and 20 µl of a solution of a sensitising agent, 5% w/v 4-ethoxymethylene-2-phenyl-2-oxazolin-5-one (oxazolone) in acetone:ethanol (1:1 by volume), was applied to the shaved area. Immediately after sensitisation, the test compound in one of the dosages listed below was injected intraperitoneally as a suspension in 1.5% v/v sorbitan esters, under the trade name Tween 80, in sterile water (100 µl). 100 µl of the same suspension was injected likewise every 24 hours for a further 7 days. The dosages used were selected from the following values: 50, 30, 10, 3, 1, 0.3, 0.1, 0.03 or 0.01 mg/kg.
Two groups of eight BALB/c mice were used as a control simultaneously with each test in a similar manner to that described above except that no test compound was included in the daily injections.
On the seventh day after sensitisation, 10 µl of a solution of 1% w/v oxazolone in acetone: olive oil (either 1:1 or 3:1 by volume) was applied to one ear (the challenged ear) of each of the test mice and the control mice. After 24 hours the thickness of the challenged ear and the thickness of the non-challenged ear of the same animal were measured with an engineer's screw gauge micrometer. The difference in thickness between the challenged ear and the non-challenged ear in each animal is a measure of the response of that animal to oxazolone. A comparison between the response of mice treated with the test compound and mice treated with the control indicates the effectiveness of the test compound as an immunomodulatory agent. The compounds were considered to be active at a particular dose if a 20% or greater reduction in ear swelling, which was statistically significant (p <0.05) according to Dunnett's test, between treated and control groups was obtained in two out of three CH tests, (or, where more than three tests have been carried out, a majority of the tests) at that dose (see for example Int. Arch. Allergy, 38, p246-259 (1970)).
Each of the compounds of formula I illustrated in Table A below was active at 50 mg/kg in two out of three tests at 50 mg/kg unless indicated otherwise (see Notes following the Table). The minimum effective dose (ie the lowest dose of those used at which the compound is active as defined above) for each compound is given in Table A. The Example (Ex) number or numbers listed adjacent to each compound indicates the process or processes illustrating the preparation of that compound in the Examples.

Question: With `CCC1Sc2ccccc2-c2[nH]n(-c3ccc(Cl)cc3)c(=O)c21` (stereo not drawn) [Example 28, 2-(4-chlorophenyl)-4-ethyl-1,4-dihydro[1]benzothiopyrano[4,3-c]-pyrazol-3(2H)-one] as the compound, how does the minimal effective dose read?
Answer: 50 mg/kg

Question: For `Cc1sc2ccccc2c2nn(-c3ccc(Cl)cc3)c(=O)c1-2` [Example 35, 2-(4-chlorophenyl)-4-methyl[1]-benzothiopyrano[4,3-c]pyrazol-3(2H)-one], which minimal effective dose is on record?
Answer: 10 mg/kg

Question: With `CC12CSc3ccccc3C1=NN(c1ccc(F)cc1)C2=O` (stereo not drawn) [Example 12, 2-(4-fluorophenyl)-3a-methyl-3a,4-dihydro[1]benzothiopyrano[4,3-c]-pyrazol-3(2H)-one] as the compound, how does the minimal effective dose read?
Answer: 50 mg/kg

Question: `CC1Sc2ccccc2-c2[nH]n(-c3ccc(Br)cc3)c(=O)c21` (stereo not drawn) [Example 30, 2-(4-bromophenyl)-4-methyl-1,4-dihydro[1]benzothiopyrano[4,3-c]-pyrazol-3(2H)-one] was tested. Which minimal effective dose did it give?
Answer: 3 mg/kg

Question: Which minimal effective dose does the source give for `CC12CSc3ccccc3C1=NN(c1ccc(Br)cc1)C2=O` (stereo not drawn) [Example 20, 2-(4-bromophenyl)-3a-methyl-3a,4-dihydro[1]benzothiopyrano[4,3-c]-pyrazol-3(2H)-one] here?
Answer: 1 mg/kg

Question: For `CC12CSc3ccc(F)cc3C1=NN(c1ccc(Cl)cc1)C2=O` (stereo not drawn) [Example 22, 2-(4-chlorophenyl)-8-fluoro-3a-methyl-3a,4-dihydro[1]benzothiopyrano[4,3-c]-pyrazol-3(2H)-one], which minimal effective dose is on record?
Answer: 50 mg/kg

Question: With `CC12CSc3ccccc3C1=NN(c1ccc(Cl)c(Cl)c1)C2=O` (stereo not drawn) [Example 13/ 24, 2-(3,4-dichlorophenyl)-3a-methyl-3a,4-dihydro[1]benzothiopyrano-[4,3-c]pyrazol-3(2H)-one] as the compound, how does the minimal effective dose read?
Answer: 0.3 mg/kg

Question: For `CC12CSc3ccccc3C1=NN(c1ccc(F)c(Cl)c1)C2=O` (stereo not drawn) [Example 18, 2-(3-chloro-4-fluorophenyl)-3a-methyl-3a,4-dihydro[1]benzothiopyrano[4,3-c]-pyrazol-3(2H)-one], which minimal effective dose is on record?
Answer: 3 mg/kg

Question: How did the minimal effective dose turn out when `Cc1ccc(N2N=C3c4ccccc4SCC3(C)C2=O)cc1Cl` (stereo not drawn) [Example 19, 2-(3-chloro-4-methylphenyl)-3a-methyl-3a,4-dihydro[1]benzothiopyrano[4,3-c]-pyrazol-3(2H)-one] was run?
Answer: 3 mg/kg

Question: `COc1ccc(-n2nc3c4ccccc4sc(C)c-3c2=O)cc1` [Example 40, 2-(4-methoxyphenyl)-4-methyl[1]benzo-thiopyrano[4,3-c]pyrazol-3(2H)-one] was tested. Which minimal effective dose did it give?
Answer: 50 mg/kg

Question: For `Cc1ccc2sc(C)c3c(=O)n(-c4ccc(Cl)cc4)nc-3c2c1` [Example 41, 2-(4-chlorophenyl)-4,8-dimethyl[1]-benzothiopyrano[4,3-c]pyrazol-3(2H)-one], which minimal effective dose is on record?
Answer: 3 mg/kg

Question: `CC12CSc3ccccc3C1=NN(c1ccc(Br)c(Cl)c1)C2=O` (stereo not drawn) [Example 17, 2-(4-bromo-3-chlorophenyl)-3a-methyl-3a,4-dihydro[1]benzothiopyrano[4,3-c]-pyrazol-3(2H)-one] was tested. Which minimal effective dose did it give?
Answer: 0.3 mg/kg

Question: With `CSc1ccc(N2N=C3c4ccccc4SCC3(C)C2=O)cc1` (stereo not drawn) [Example 21, 3a-methyl-2-(4-methylthiophenyl)-3a,4-dihydro[1]benzothiopyrano[4,3-c]-pyrazol-3(2H)-one] as the compound, how does the minimal effective dose read?
Answer: 50 mg/kg

Question: Which minimal effective dose does the source give for `Cc1sc2ccccc2c2nn(-c3ccc(Br)cc3)c(=O)c1-2` [Example 39, 2-(4-bromophenyl)-4-methyl[1]benzo-thiopyrano[4,3-c]pyrazol-3(2H)-one] here?
Answer: 50 mg/kg

Question: For `Cc1sc2ccccc2c2nn(-c3ccc(Cl)c(Cl)c3)c(=O)c1-2` [Example 43, 2-(3,4-dichlorophenyl)-4-methyl[1]-benzothiopyrano[4,3-c]pyrazol-3(2H)-one], which minimal effective dose is on record?
Answer: 3 mg/kg

Question: With `CCc1sc2ccccc2c2nn(-c3ccc(Cl)cc3)c(=O)c1-2` [Example 37, 2-(4-chlorophenyl)-4-ethyl[1]benzo-thiopyrano[4,3-c]pyrazol-3(2H)-one] as the compound, how does the minimal effective dose read?
Answer: 50 mg/kg

Question: With `CC12CSc3ccccc3C1=NN(c1ccc(Cl)cc1)C2=O` (stereo not drawn) [Example 11/ 23, 2-(4-chlorophenyl)-3a-methyl-3a,4-dihydro[1]benzothiopyrano[4,3-c]-pyrazol-3(2H)-one] as the compound, how does the minimal effective dose read?
Answer: 3 mg/kg

Question: `CC1Sc2ccccc2-c2[nH]n(-c3ccc(C(F)(F)F)cc3)c(=O)c21` (stereo not drawn) [Example 29/ 34/ 44, 4-methyl-2-(4-trifluoromethylphenyl)-1,4-dihydro[1]benzothiopyrano[4,3-c]-pyrazol-3(2H)-one] was tested. Which minimal effective dose did it give?
Answer: 3 mg/kg

Question: How did the minimal effective dose turn out when `Cc1sc2ccccc2c2nn(-c3ccc(C(F)(F)F)cc3)c(=O)c1-2` [Example 38, 4-methyl-2-(4-trifluoromethyl-phenyl)[1]benzothiopyrano[4,3-c]-pyrazol-3(2H)-one] was run?
Answer: 0.3 mg/kg

Question: How did the minimal effective dose turn out when `Cc1sc2ccccc2c2nn(-c3cccc(Cl)c3)c(=O)c1-2` [Example 42, 2-(3-chlorophenyl)-4-methyl[1]benzo-thiopyrano[4,3-c]pyrazol-3(2H)-one] was run?
Answer: 50 mg/kg

Question: `CC12CSc3ccc(Cl)cc3C1=NN(c1ccc(Cl)c(Cl)c1)C2=O` (stereo not drawn) [Example 15, 8-chloro-2-(3,4-dichlorophenyl)-3a-methyl-3a,4-dihydro[1]benzothio-pyrano[4,3-c]pyrazol-3(2H)-one] was tested. Which minimal effective dose did it give?
Answer: 50 mg/kg

Question: For `CC1Sc2ccccc2-c2[nH]n(-c3ccc(Cl)c(Cl)c3)c(=O)c21` (stereo not drawn) [Example 26, 2-(3,4-dichlorophenyl)-4-methyl-1,4-dihydro[1]benzothiopyrano[4,3-c]-pyrazol-3(2H)-one], which minimal effective dose is on record?
Answer: 50 mg/kg

Question: How did the minimal effective dose turn out when `CC12CSc3ccccc3C1=NN(c1cccc(Cl)c1)C2=O` (stereo not drawn) [Example 14, 2-(3-chlorophenyl)-3a-methyl-3a,4-dihydro[1]benzothiopyrano[4,3-c]-pyrazol-3(2H)-one] was run?
Answer: 3 mg/kg

Question: How did the minimal effective dose turn out when `CC12CSc3ccccc3C1=NN(c1ccc(C(F)(F)F)cc1)C2=O` (stereo not drawn) [Example 16, 3a-methyl-2-(4-trifluoromethylphenyl)-3a,4-dihydro[1]benzothiopyrano-[4,3-c]pyrazol-3(2H)-one] was run?
Answer: 0.3 mg/kg

Question: For `CC1Sc2ccccc2-c2[nH]n(-c3ccc(F)cc3)c(=O)c21` (stereo not drawn) [Example 27, 2-(4-fluorophenyl)-4-methyl-1,4-dihydro[1]benzothiopyrano[4,3-c]-pyrazol-3(2H)-one], which minimal effective dose is on record?
Answer: 50 mg/kg

Question: `Cc1sc2ccccc2c2nn(-c3ccc(F)cc3)c(=O)c1-2` [Example 36, 2-(4-fluorophenyl)-4-methyl[1]benzo-thiopyrano[4,3-c]pyrazol-3(2H)-one] was tested. Which minimal effective dose did it give?
Answer: 10 mg/kg

Question: Which minimal effective dose does the source give for `CC1Sc2ccccc2-c2[nH]n(-c3ccc(Cl)cc3)c(=O)c21` (stereo not drawn) [Example 25, 2-(4-chlorophenyl)-4-methyl-1,4-dihydro[1]benzothiopyrano[4,3-c]-pyrazol-3(2H)-one] here?
Answer: 30 mg/kg
